Experimental findings from ChEMBL document CHEMBL1137926, “S-(2-(acylamino)phenyl) 2,2-dimethylpropanethioates as CETP inhibitors” (Bioorg Med Chem Lett, 2004) are described below.

This test has as its target T1, Cholesteryl ester transfer protein (Homo sapiens, UniProt P11597).
T1 sequence (P11597 whole entry): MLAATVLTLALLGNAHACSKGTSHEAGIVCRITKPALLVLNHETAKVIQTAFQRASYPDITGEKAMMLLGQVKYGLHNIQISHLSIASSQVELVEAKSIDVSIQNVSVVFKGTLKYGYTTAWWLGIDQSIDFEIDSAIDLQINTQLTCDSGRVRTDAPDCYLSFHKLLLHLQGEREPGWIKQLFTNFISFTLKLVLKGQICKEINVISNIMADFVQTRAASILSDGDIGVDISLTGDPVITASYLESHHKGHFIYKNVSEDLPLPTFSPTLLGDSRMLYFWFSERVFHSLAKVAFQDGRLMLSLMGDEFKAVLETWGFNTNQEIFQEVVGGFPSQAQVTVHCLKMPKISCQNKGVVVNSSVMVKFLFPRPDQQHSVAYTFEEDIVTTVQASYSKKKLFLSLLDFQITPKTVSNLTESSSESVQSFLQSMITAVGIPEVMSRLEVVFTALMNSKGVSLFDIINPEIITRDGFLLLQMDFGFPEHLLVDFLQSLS
As to the kind of experiment: In vitro inhibition of CETP activity was assessed by measuring the rate of [3H]- cholesteryl ester transfer from HDL to apoprotein B-containing lipoproteins in human plasma. It counts as cell-free.
As for `CC(C)CCC1(C(=O)Nc2ccc(Cl)cc2SC(=O)C(C)(C)C)CCCCC1`, 10 µM corresponded to half-maximal inhibition (IC50). On to `CC(C)(C)C(=O)Sc1ccc(F)cc1NC(=O)C1(C)CCCCC1`, for which the IC50 came out at 70 µM. `Cc1ccc(SC(=O)C(C)(C)C)c(NC(=O)C2(CCC(C)C)CCCCC2)c1` showed a concentration for half-maximal inhibition (IC50) of more than 300 µM. As for `COc1ccc(SC(=O)C(C)(C)C)c(NC(=O)C2(C)CCCCC2)c1`, the figure is more than 300 µM; as for `COc1ccc(SC(=O)C(C)(C)C)c(NC(=O)C2(CCC(C)C)CCCCC2)c1`, more than 300 µM; as for `CC(C)(C)C(=O)Sc1ccc(C#N)cc1NC(=O)C1(C)CCCCC1`, 102 µM. To `CC(C)(C)C(=O)Sc1cc(F)ccc1NC(=O)C1(C)CCCCC1` belongs 78 µM; to `CC(C)(C)C(=O)Sc1c(F)cccc1NC(=O)C1(C)CCCCC1`, more than 300 µM.

`CC(C)CCC1(C(=O)Nc2cc(Cl)ccc2SC(=O)C(C)(C)C)CCCCC1` showed an IC50 of 13 µM.

Consider `CC(C)CCC1(C(=O)Nc2cc(C(F)(F)F)ccc2SC(=O)C(C)(C)C)CCCCC1`, for which half-maximal inhibition (IC50) was put at 13 µM. To `CC(C)(C)C(=O)Sc1cc(F)cc(F)c1NC(=O)C1(C)CCCCC1` belongs more than 300 µM.

The IC50 is the midpoint of a concentration-inhibition curve.
